According to ChEMBL document CHEMBL1201862, “PubChem BioAssay data set” (2004):
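Five compound concentrations were applied to cells in 96-well plates for 48 hours; endpoints were derived by simple linear interpolation of the resulting dose-response curve. GI50: concentration for 50% inhibition of growth.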 The source made the active and inactive calls. No stated cut-off is given here; in the data, active = GI50 up to about 1.1 µM and inactive = higher.

Key:
Test in all cases: NCI-60 cell line screen, 48 h
[1] = system: SK-MEL-2
[2] = system: NCI-H460
[3] = system: HL-60
[4] = system: RPMI-8226
[5] = system: UACC-257
[6] = system: 786-0
[7] = system: SK-MEL-5
[8] = system: NCI-H522
[9] = system: MOLT-4
[10] = system: MCF7
[11] = system: COLO 205
[12] = system: MDA-MB-231
[13] = system: BT-549
[14] = system: LOX IMVI
[15] = system: HCT-15
[16] = system: EKVX
[17] = system: ACHN
[18] = system: HOP-62
[19] = system: A549
[20] = system: SNB-75
[21] = system: SN12C
[22] = system: DU-145
[23] = system: UO-31
[24] = system: SR
[25] = system: HCC 2998
[26] = system: NCI-H226
[27] = system: SW-620
[28] = system: SNB-19
[29] = system: T47D
[30] = system: RXF 393
[31] = system: TK-10
[32] = system: NCI/ADR-RES
[33] = system: OVCAR-4
[34] = system: Malme-3M
[35] = system: SK-MEL-28
[36] = system: U-251
[37] = system: HCT-116
[38] = system: SK-OV-3
[39] = system: K562
[40] = system: CCRF-CEM
[41] = system: MDA-N
[42] = system: CAKI-1
[43] = system: M14
[44] = system: MDA-MB-435
[45] = system: OVCAR-3
[46] = system: A498
[47] = system: OVCAR-5
[48] = system: NCI-H23
[49] = system: KM12
[50] = system: IGROV-1
[51] = system: SF-295
[52] = system: UACC-62
[53] = system: PC-3
[54] = system: HT-29
[55] = system: OVCAR-8
[56] = system: HOP-92

`COc1cc(/C=C2\C(=O)N(c3cccc([N+](=O)[O-])c3)C(c3ccccc3)S2(=O)=O)cc(OC)c1OC` (stereo unspecified) was tested, and the GI50 [1] was > 100 µM (inactive), the GI50 [2] was > 100 µM (inactive) and the GI50 [3] was 84.7 µM (inactive). For the same compound, the GI50 [4] was 64.9 µM (inactive), the GI50 [5] was > 100 µM (inactive) and the GI50 [6] was > 100 µM (inactive). The GI50 [7] was > 100 µM (inactive), the GI50 [8] was > 100 µM (inactive) and the GI50 [9] was 74 µM (inactive). The GI50 [10] was 39.7 µM (inactive), the GI50 [11] was > 100 µM (inactive) and the GI50 [12] was > 100 µM (inactive). The GI50 [13] was > 100 µM (inactive), the GI50 [14] was > 100 µM (inactive) and the GI50 [15] was greater than 100 µM. For the same compound, the GI50 [16] was > 100 µM (inactive), the GI50 [17] was > 100 µM (inactive) and the GI50 [18] was > 100 µM (inactive). For the same compound, the GI50 [19] was > 100 µM (inactive), the GI50 [20] was > 100 µM (inactive) and the GI50 [21] was > 100 µM (inactive). For the same compound, the GI50 [22] was > 100 µM (inactive), the GI50 [23] was > 100 µM (inactive) and the GI50 [24] was 37.2 µM (inactive). The GI50 [25] was > 100 µM (inactive), the GI50 [26] was > 100 µM (inactive) and the GI50 [27] was 94.4 µM (inactive). For the same compound, the GI50 [28] was > 100 µM (inactive), the GI50 [29] was 63.7 µM (inactive) and the GI50 [30] was > 100 µM (inactive). For the same compound, the GI50 [31] was > 100 µM (inactive), the GI50 [32] was > 100 µM (inactive) and the GI50 [33] was 80 µM (inactive). For the same compound, the GI50 [34] was > 100 µM (inactive), the GI50 [35] was > 100 µM (inactive) and the GI50 [36] was > 100 µM (inactive). For the same compound, the GI50 [37] was > 100 µM (inactive), the GI50 [38] was > 100 µM (inactive) and the GI50 [39] was 49.4 µM (inactive). For the same compound, the GI50 [40] was 62.2 µM (inactive), the GI50 [41] was 31.1 µM (inactive) and the GI50 [42] was > 100 µM (inactive). The GI50 [43] was > 100 µM (inactive), the GI50 [44] was 32.3 µM (inactive) and the GI50 [45] was > 100 µM (inactive). The GI50 [46] was > 100 µM (inactive), the GI50 [47] was > 100 µM (inactive) and the GI50 [48] was > 100 µM (inactive). For the same compound, the GI50 [49] was 92.7 µM (inactive), the GI50 [50] was > 100 µM (inactive) and the GI50 [51] was 97.5 µM (inactive). For the same compound, the GI50 [52] was 80.7 µM (inactive), the GI50 [53] was > 100 µM (inactive) and the GI50 [54] was > 100 µM (inactive). For the same compound, the GI50 [55] was > 100 µM (inactive) and the GI50 [56] was > 100 µM (inactive).
